Test results published in publication PMC6152180, “Design, Synthesis and Evaluation of Hesperetin Derivatives as Potential Multifunctional Anti-Alzheimer Agents” (Molecules : A Journal of Synthetic Chemistry and Natural …, 2017).
Like-named read-outs stand apart in the source and are kept apart here.

Assays:
BuChE = molecular target: T1, BuChE (Equus caballus, UniProt P81908); assay: biochemical
T1 construct: purchased Aladdin B128570-2KU; host or cells: equine serum
Method: (§1) Acetylcholinesterase (AChE, E.C. 3.1.1.7, obtained from electric eel) was purchased from Sigma-Aldrich (St. Louis, MO, USA, product code: C3389-2KU). Butyrylcholinesterase (BuChE, E.C. 3.1.1.8, obtained from equine serum) was purchased from Aladdin (Shanghai, China, product code: B128570-2KU). […] The compounds were dissolved in a minimum volume of DMSO (1%) and then diluted in 0.1 M KH2PO4/K2HPO4 buffer (pH 8.0) to provide a final concentration range.
(§2) Enzyme solutions were prepared to give 2.0 units/ mL in 2 mL aliquots. The assay medium contained phosphate buffer, pH 8.0 (1 mL), 50 μL of 0.01 M DTNB, 10 μL of enzyme, and 50 μL of 0.01 M substrate (ATC). The substrate was added to the assay medium containing enzyme, buffer, and DTNB with inhibitor after 15 min of incubation time. […] In vitro BuChE assay used the similar method described above [31]. Each concentration was assayed in triplicate.

in vitro = conditions: human
Method: Thus, we used the methylthiazolyl tetrazolium (MTT) method [30] to perform a neurocyte (SH-SY5Y) toxicity test in vitro.
The SH-SY5Y cell line was seeded on 96-well plates at a density of 10^4 cells/well. […] Subsequently, 10 μL of 5 mg/mL MTT solution was added to each well and further incubated for 4 h at 37 °C. The solution was carefully removed, and each well was treated with DMSO (200 μL for each well). The optical density of the wells was then read on the microplate reader at 570 nm. All the tested compounds were performed in triplicate.

[1] = Oxygen radical absorbance capacity-fluorescein (ORAC-FL) assay; conditions: Trolox equivalents, Trolox = 1
Method: Vitamin E analogue Trolox was used as the standard, and the results were expressed as Trolox equivalents.
The anti-oxidation activity was tested by using the oxygen radical absorbance capacity-fluorescein (ORAC-FL) assay [25, 32]. All the ORAC-assays measure antioxidant scavenging activity against peroxyl radical induced by 2,2′-azobis (2-amidinopropane) dihydrochloride (AAPH) at 37 °C.
The reaction was conducted with 75 mM phosphate buffer (pH 7.4) and the final reaction mixture was 200 μL. Fluorescein (120 μL, 300 nM final concentration) and antioxidant (20 μL) were placed in the wells of a black 96-well plate, and the mixture was incubated for 15 min at 37 °C. Then AAPH solution (60 μL, 12 mM final concentration) was added rapidly. […] 6-hydroxy-2,5,7,8-tetramethylchroman-2-carboxylic acid (Trolox) was used as a standard (1–5 μM, final concentration). A blank (FL + AAPH) using phosphate buffer instead of antioxidant and Trolox calibration were carried out in each assay. The samples were measured at different concentrations (1–5 μM), and at least three independent assays were performed for each sample. Fluorescence measurements were normalized based on the curve of the blank (without antioxidant). Antioxidant curves (fluorescence versus time) were normalized to the curve of the blank in the same assay, and then the area under the fluorescence decay curve (AUC) was calculated. The net AUC of a sample was obtained by subtracting the AUC from the blank. ORAC-FL values were expressed as Trolox equivalents by using the standard curve calculated for each sample, where the ORAC-FL value of Trolox was taken as one, indicating the antioxidant potency of the test compounds.

AChE = molecular target: T2, AChE (Electrophorus electricus, UniProt O42275); assay: biochemical; conditions: for Selective Index: Selectivity Index = IC50 (BuChE)/IC50 (AChE)
T2 construct: purchased Sigma-Aldrich C3389-2KU
Method: as §1, §2

Aβ (1–42) = Aβ (1–42) (Homo sapiens, UniProt P05067); assay: Inhibition of self-mediated Aβ (1–42) aggregation (thioflavin T fluorescence assay); conditions: read-out: Aβ (1–42) aggregation inhibition rate
Method: A thioflavin T based fluorometric assay was performed to investigate the self-mediated Aβ (1–42) aggregation [33]. Aβ (1–42) peptide (Sigma-Aldrich) was dissolved in phosphate buffer (0.01 M, pH 7.40) to obtain a 20 μM solution. Compounds were firstly dissolved in DMSO to obtain a 10 mM solution. Inhibitors and the final concentration of Aβ (1–42) were 20 μM. After incubated in 37 °C for 48 h, thioflavin-T (5 μM in 50 mM glycine-NaOH buffer, pH 8.00) was added. […] Each inhibitor was run in triplicate. The fluorescence intensities were recorded, and the percent inhibition on aggregation was calculated by the following expression: (1 − IFi/IFc) × 100% in which IFi and IFc were the fluorescence intensities obtained for absorbance in the presence and absence of inhibitors, respectively, after subtracting the fluorescence of respective blanks.

[2] = BuChE from equine serum, means ± SEM of three experiments, read-out: BuChE Inhibition, (IC50)
[3] = AChE from electric eel, means ± SEM of three experiments, read-out: AchE Inhibition, (IC50)

T1 sequence (P81908 whole entry): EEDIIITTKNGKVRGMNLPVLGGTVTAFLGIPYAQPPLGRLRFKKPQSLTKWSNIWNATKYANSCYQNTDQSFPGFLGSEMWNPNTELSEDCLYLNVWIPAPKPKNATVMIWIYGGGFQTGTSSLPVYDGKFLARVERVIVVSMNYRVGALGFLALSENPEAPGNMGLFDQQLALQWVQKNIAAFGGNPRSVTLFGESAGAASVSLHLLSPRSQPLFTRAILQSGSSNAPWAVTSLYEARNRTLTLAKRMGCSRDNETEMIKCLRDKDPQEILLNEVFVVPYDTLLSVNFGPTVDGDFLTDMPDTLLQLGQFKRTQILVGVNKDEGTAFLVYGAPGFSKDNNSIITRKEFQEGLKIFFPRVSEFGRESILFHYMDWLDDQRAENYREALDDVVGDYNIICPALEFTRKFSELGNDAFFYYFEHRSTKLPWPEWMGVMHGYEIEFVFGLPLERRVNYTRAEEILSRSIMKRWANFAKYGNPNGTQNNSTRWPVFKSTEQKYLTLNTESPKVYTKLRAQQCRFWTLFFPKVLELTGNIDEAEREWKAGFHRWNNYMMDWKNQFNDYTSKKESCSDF
T2 sequence (O42275 24-633): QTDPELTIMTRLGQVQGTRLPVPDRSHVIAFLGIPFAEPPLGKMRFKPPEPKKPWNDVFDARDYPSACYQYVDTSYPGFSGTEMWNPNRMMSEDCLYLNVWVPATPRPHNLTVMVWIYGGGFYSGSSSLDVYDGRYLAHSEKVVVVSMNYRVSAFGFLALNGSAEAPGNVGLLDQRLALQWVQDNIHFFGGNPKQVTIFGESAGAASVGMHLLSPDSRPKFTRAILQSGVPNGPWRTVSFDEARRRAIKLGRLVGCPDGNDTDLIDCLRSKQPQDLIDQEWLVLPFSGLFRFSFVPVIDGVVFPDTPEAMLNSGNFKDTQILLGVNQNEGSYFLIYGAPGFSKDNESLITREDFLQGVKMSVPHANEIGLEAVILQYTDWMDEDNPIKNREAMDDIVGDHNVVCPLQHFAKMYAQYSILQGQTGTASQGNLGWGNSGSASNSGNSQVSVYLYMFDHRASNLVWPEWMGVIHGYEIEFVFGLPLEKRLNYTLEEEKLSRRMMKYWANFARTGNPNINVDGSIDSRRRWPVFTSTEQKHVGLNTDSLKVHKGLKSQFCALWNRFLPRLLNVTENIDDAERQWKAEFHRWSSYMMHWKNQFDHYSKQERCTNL
Aβ (1–42), sequence (P05067 672-713): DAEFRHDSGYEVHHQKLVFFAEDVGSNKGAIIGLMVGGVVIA

Compound	IC50 (BuChE; [2])	viability at 48 h, 1 µM (in vitro)	viability at 48 h, 10 µM (in vitro)	viability at 48 h, 50 µM (in vitro)	viability at 48 h, 100 µM (in vitro)	ORAC [1]	IC50 (AChE; [3])	Selective Index (AChE)	IC50 (BuChE)	IC50 (AChE)	inhibition at 20 µM (Aβ (1–42))
COc1ccc(C2CC(=O)c3c(O)cc(OCC(=O)NCc4ccc(F)cc4)cc3O2)cc1O (centres unmarked) [Compound 4c, N-(4-Fluorobenzyl)-2-[5-hydroxy-2-(3-hydroxy-4-methoxyphenyl)-4-oxochroman-7-yloxy]-acetamide]	2080 ± 76 nM	98.5 ± 4.98%	97.5 ± 3.76%	83.8 ± 2.32%	58.8 ± 3.97%	2.9 μM of Trolox equivalent/μMof tested compound	12.4 ± 0.81 nM	167	–	–	–
COc1ccc(C2CC(=O)c3c(O)cc(OCC(=O)NCCc4ccccc4Cl)cc3O2)cc1O (centres unmarked) [Compound 4p, N-[2-(2-Chlorophenyl)ethyl]-2-[5-hydroxy-2-(3-hydroxy-4-methoxyphenyl)-4-oxo-chroman-7-yloxy]acetamide]	3470 ± 67 nM	99.3 ± 4.34%	94.4 ± 3.9%	83.1 ± 4.27%	64.5 ± 4.82%	2.7 μM of Trolox equivalent/μMof tested compound	17.2 ± 0.45 nM	201	–	–	–
COc1ccc(C2CC(=O)c3c(O)cc(OCC(=O)NCc4ccccc4Cl)cc3O2)cc1O (centres unmarked) [Compound 4g, N-(2-Chlorobenzyl)-2-[5-hydroxy-2-(3-hydroxy-4-methoxyphenyl)-4-oxochroman-7-yloxy]acetamide]	1630 ± 78 nM	97.8 ± 6.83%	95.7 ± 5.67%	79.3 ± 4.33%	70.8 ± 5.32%	–	14 ± 0.95 nM	116	–	–	–
COc1cccc(CNC(=O)COc2cc(O)c3c(c2)OC(c2ccc(OC)c(O)c2)CC3=O)c1 (centres unmarked) [Compound 4j, 2-[5-Hydroxy-2-(3-hydroxy-4-methoxyphenyl)-4-oxochroman-7-yloxy]-N-(3-methoxy-benzyl)acetamide]	2460 ± 83 nM	103 ± 6.47%	98.2 ± 7.01%	84.2 ± 3.2%	70.8 ± 5.36%	3.1 μM of Trolox equivalent/μMof tested compound	22.3 ± 1.54 nM	110	–	–	–
COc1cc(/C=C/C(=O)CC(=O)/C=C/c2ccc(O)c(OC)c2)ccc1O [Curcumin, curcumin, reference compound]	–	95.3 ± 5.21%	90.9 ± 4.31%	82.1 ± 3.07%	71.8 ± 4.21%	–	–	–	–	–	–
COc1ccc(C2CC(=O)c3c(O)cc(OCC(=O)NCCc4ccc(Cl)cc4)cc3O2)cc1O (centres unmarked) [Compound 4m, N-[2-(4-Chlorophenyl)ethyl]-2-[5-hydroxy-2-(3-hydroxy-4-methoxyphenyl)-4-oxo-chroman-7-yloxy]acetamide]	3350 ± 66 nM	102 ± 6.65%	97.3 ± 5.21%	81.5 ± 4.01%	64.5 ± 4.32%	2.6 μM of Trolox equivalent/μMof tested compound	15.7 ± 0.85 nM	214	–	–	–
COc1ccc(C2CC(=O)c3c(O)cc(OCC(=O)NCCc4cccc(Cl)c4)cc3O2)cc1O (centres unmarked) [Compound 4r, N-[2-(3-Chlorophenyl)ethyl]-2-[5-hydroxy-2-(3-hydroxy-4-methoxyphenyl)-4-oxo-chroman-7-yloxy]acetamide]	3030 ± 84 nM	98.9 ± 5.2%	95.8 ± 6.29%	83.8 ± 4.24%	62.2 ± 4.18%	2.8 μM of Trolox equivalent/μMof tested compound	16.1 ± 0.79 nM	188	–	–	–
COc1ccc([C@@H]2CC(=O)c3c(O)cc(O)cc3O2)cc1O [Hesperetin, hesperetin]	–	99 ± 5.87%	93 ± 4.33%	85.2 ± 3.43%	67.3 ± 5.21%	–	–	3	2900 ± 67 nM	1020 ± 37 nM	–
COc1ccc(CCNC(=O)COc2cc(O)c3c(c2)OC(c2ccc(OC)c(O)c2)CC3=O)cc1 (centres unmarked) [Compound 4l, 2-[5-Hydroxy-2-(3-hydroxy-4-methoxyphenyl)-4-oxochroman-7-yloxy]-N-[2-(4-methoxy-phenyl)ethyl]acetamide]	2790 ± 53 nM	98.9 ± 4.07%	94.5 ± 5.32%	78.5 ± 3.21%	63.2 ± 5.04%	2.9 μM of Trolox equivalent/μMof tested compound	19.5 ± 0.77 nM	143	–	–	–
Nc1c2c(nc3ccccc13)CCCC2 [Tacrine, tacrine, reference compound]	–	–	–	–	–	<0.1 μM of Trolox equivalent/μMof tested compound	–	–	–	–	–
COc1ccc(C2CC(=O)c3c(O)cc(OCC(=O)NCCc4ccccc4F)cc3O2)cc1O (centres unmarked) [Compound 4q, N-[2-(2-Fluorophenyl)ethyl]-2-[5-hydroxy-2-(3-hydroxy-4-methoxyphenyl)-4-oxochroman-7-yloxy]-acetamide]	2240 ± 77 nM	99 ± 5.28%	92 ± 6.41%	85.6 ± 3.95%	66.5 ± 3.81%	2.5 μM of Trolox equivalent/μMof tested compound	20.2 ± 1.88 nM	111	–	–	–
COc1ccc(C2CC(=O)c3c(O)cc(OCC(=O)NCc4ccccc4F)cc3O2)cc1O (centres unmarked) [Compound 4h, N-(2-Fluorobenzyl)-2-[5-hydroxy-2-(3-hydroxy-4-methoxyphenyl)-4-oxochroman-7-yloxy]-acetamide]	2800 ± 39 nM	100 ± 6.52%	98.8 ± 5.38%	75.8 ± 3.83%	60.6 ± 4.27%	2.5 μM of Trolox equivalent/μMof tested compound	15.2 ± 2.03 nM	184	–	–	–
COc1ccc(C2CC(=O)c3c(O)cc(OCC(=O)NCc4ccc(Br)cc4)cc3O2)cc1O (centres unmarked) [Compound 4d, N-(4-Bromobenzyl)-2-[5-hydroxy-2-(3-hydroxy-4-methoxyphenyl)-4-oxochroman-7-yloxy]-acetamide]	2130 ± 64 nM	99.9 ± 5.76%	99.5 ± 6.23%	86.2 ± 5.14%	70 ± 4.78%	2.6 μM of Trolox equivalent/μMof tested compound	15.7 ± 0.95 nM	136	–	–	–
COc1ccc(C2CC(=O)c3c(O)cc(OCC(=O)NCc4ccc(Cl)cc4)cc3O2)cc1O (centres unmarked) [Compound 4b, N-(4-Chlorobenzyl)-2-[5-hydroxy-2-(3-hydroxy-4-methoxyphenyl)-4-oxochroman-7-yloxy]-acetamide]	3500 ± 66 nM	103 ± 4.56%	95.9 ± 3.98%	83.7 ± 4.12%	65.4 ± 5.33%	2.7 μM of Trolox equivalent/μMof tested compound	13.6 ± 0.78 nM	258	–	–	–
COc1ccc(C2CC(=O)c3c(O)cc(OCC(=O)NCc4ccccc4OC)cc3O2)cc1O (centres unmarked) [Compound 4i, 2-[5-Hydroxy-2-(3-hydroxy-4-methoxyphenyl)-4-oxochroman-7-yloxy]-N-(2-methoxy-benzyl)acetamide]	1990 ± 134 nM	97.8 ± 6.32%	96.7 ± 5.21%	75 ± 4.12%	55 ± 5.69%	2.7 μM of Trolox equivalent/μMof tested compound	19.2 ± 0.66 nM	103	–	–	–
COc1ccc(CNC(=O)COc2cc(O)c3c(c2)OC(c2ccc(OC)c(O)c2)CC3=O)cc1 (centres unmarked) [Compound 4e, 2-[5-Hydroxy-2-(3-hydroxy-4-methoxyphenyl)-4-oxochroman-7-yloxy]-N-(4-methoxy-benzyl)acetamide]	3210 ± 92 nM	105 ± 3.87%	98.3 ± 5.27%	87.1 ± 6.37%	66.5 ± 4.95%	2.8 μM of Trolox equivalent/μMof tested compound	17.9 nM	179	–	–	–
COc1ccc(C2CC(=O)c3c(O)cc(OCC(=O)NCCc4ccc(F)cc4)cc3O2)cc1O (centres unmarked) [Compound 4o, N-[2-(4-Fluorophenyl)ethyl]-2-[5-hydroxy-2-(3-hydroxy-4-methoxyphenyl)-4-oxochroman-7-yloxy]-acetamide]	2260 ± 81 nM	101 ± 6.31%	97.2 ± 5.09%	81.7 ± 3.52%	59.7 ± 6.14%	–	13.5 ± 1.44 nM	167	–	–	–
COc1ccc(C2CC(=O)c3c(O)cc(OCC(=O)NCc4ccccc4)cc3O2)cc1O (centres unmarked) [Compound 4a, N-Benzyl-2-[5-hydroxy-2-(3-hydroxy-4-methoxyphenyl)-4-oxochroman-7-yloxy]-acetamide]	3400 ± 56 nM	98.2 ± 8.02%	91.6 ± 5.67%	81.4 ± 5.23%	63.2 ± 4.23%	–	25.5 ± 1.32 nM	133	–	–	73.2%
COc1ccc(C2CC(=O)c3c(O)cc(OCC(=O)NCCc4ccc(Br)cc4)cc3O2)cc1O (centres unmarked) [Compound 4n, N-[2-(4-Bromophenyl)ethyl]-2-[5-hydroxy-2-(3-hydroxy-4-methoxyphenyl)-4-oxo-chroman-7-yloxy]acetamide]	1990 ± 51 nM	99.8 ± 3.89%	96.5 ± 4.24%	78.8 ± 5.21%	55.6 ± 5.34%	2.4 μM of Trolox equivalent/μMof tested compound	17.2 ± 0.96 nM	115	–	–	–
COc1ccc(C2CC(=O)c3c(O)cc(OCC(=O)NCCc4ccccc4)cc3O2)cc1O (centres unmarked) [Compound 4k, 2-[5-Hydroxy-2-(3-hydroxy-4-methoxyphenyl)-4-oxochroman-7-yloxy]-N-phenethyl-acetamide]	3010 ± 74 nM	98.9 ± 6.3%	96.5 ± 2.98%	81 ± 3.22%	68.5 ± 4.92%	2.7 μM of Trolox equivalent/μMof tested compound	11.9 ± 1.12 nM	254	–	–	–
